Measurements: US4988517A, “Method and composition for inhibiting colon carcinogenesis” (American Health Foundation, priority 1988, dated 1991)

Columns and labels:
[1] = Body weights of male F344 rats fed the experimental diets; type: in vivo; details: for Body wt, Initial (Wk 0) / Body wt, wk 4 / Body wt, wk 8 / Body wt, wk 16 / Body wt, wk 22 / Body wt, wk 30 / Body wt, wk 37 (at termination): 25 ppm in diet, Mean ± SD
Description: (§1) Experimental Procedure. Male F344 rats received at weaning were quarantined for 10 days and given access to AIN-76A semipurified diet (control diet). They were then be randomly allocated by weight to one of three dietary groups (control diet and 25 ppm BSC and 25 ppm benzylthiocyanate ("BTC") diets). […] Therefore one of our goals was to compare BSC with its sulfur analog BTC. Each dietary group was divided into AOM-treated (27 animals per subgroup) and vehicle-treated (12 animals per subgroup) subgroups and housed in plastic cages with filter tops in the animal holding room under controlled environmental conditions.
(§2) Beginning at 5 wk of age, groups of rats fed the control diet were transferred to diets containing 25 ppm BSC or 25 ppm BTC. At 7 wk of age, the animals in each group, except the vehicle-treated controls, received two weekly s.c. injections of AOM at a dose level of 15 mg/kg body weight/wk. Vehicle controls were treated with an equal volume of normal saline. One wk after AOM or saline treatment, animals receiving the BSC and BTC diets were transferred to the control diets and continued on this diet until the termination of the experiment. The 1-wk delay before transferring to control diet was to ensure complete metabolism and excretion of the carcinogen. The animals receiving the control diet continued on the same diet. The experiment was terminated 34 wk after the last AOM injection.
(§3) Body weights were recorded weekly until the animals reach 16 wk of age and then every 4 wk. Six vehicle-treated animals randomly chosen from each dietary group while they were consuming experimental and control diets were used for tissue and blood plasma glutathione peroxidase analysis.

[2] = system: azoxymethane-induced colon tumors; assay: AOM-induced colon tumor incidence and multiplicity (initiation phase feeding); type: in vivo, male F344 rats
Description: as §1, §2
(§4) Both AOM-and vehicle-treated animals were sacrificed by CO2 euthanasia. Following laparotomy, the entire stomach, small intestine, and large intestine were resected and opened longitudinally, and the contents flushed with normal saline. The location, number, and size of the colon and small intestinal tumors were noted grossly under the dissection microscope. All other organs, including liver and kidneys, were also examined grossly for tumors. Tissues were fixed in 10% buffered formalin, embedded in paraffin blocks, and processed by routine histological methods with the use of eosin and hematoxylin stains.
(§5) Statistical Analysis. The data on tumor incidence were analyzed statistically by the x^2 method and Fischer's exact probability test, and tumor multiplicity was analyzed by Student's t test. Biochemical results were analyzed by Student's t test.
(§6) Using the above-identified procedures, a study was made of the effect of feeding benzylselenocyanate and its sulfur analogue, benzylthiocyanate, two (2) weeks before, during and until one (1) week after carcinogen administration (initiation phase) on intestinal carcinogenesis induced by azoxymethane (CAS: 25843-45-2) in male F344 rats.

[3] = system: azoxymethane-induced small intestinal tumors; assay: AOM-induced small intestinal tumor incidence and multiplicity; type: in vivo, male F344 rats
Description: as §1, §2, §4, §5, §6

[4] = system: azoxymethane-induced ear duct tumors; assay: AOM-induced ear duct tumor incidence; type: in vivo, male F344 rats; details: 25 ppm in diet
Description: as §1, §2
as §4, with “Tissues were fixed in 10% buffered formalin, embedded in paraffin blocks, and processed by routine histological methods with the use of eosin and hematoxylin stains.” left out
as §5

[5] = system: azoxymethane-induced metastasis; assay: AOM-induced metastasis; type: in vivo, male F344 rats
Description: as §1, §2, §4

[6] = system: selenium-dependent glutathione peroxidase; assay: Selenium-dependent glutathione peroxidase activity in tissues of rats fed the diets; type: in vivo, male F344 rats
Procedure: as §3
Biochemical Determination. For the determination of tissue and blood plasma glutathione peroxidase activity, 6 vehicle-treated animals from each dietary group, while the animals were on experimental and control diets, were used. Before sacrificing the animals, blood was obtained under ether anesthesia by cardiac puncture with a syringe. They were then decapitated,and liver, kidneys, small intestine, and colon were rapidly removed. The liver was perfused with ice-cold normal saline. The small intestine and colon were slit open longitudinally and freed from all the contents, and the mucosa was scraped with a microscope glass slide. The liver and kidneys were trimmed free of connective tissue, minced with scissors, and homogenized for 10 s in 3 volumes of buffer, pH 7.3 (0.25 sucrose-10 mM EDTA-50 mM potassium phosphate) using a Brinkman Polytron at low speed. The colonic and small intestinal mucosal scrapings were immediately placed into 3 volumes of the same buffer and homogenized similarly. The homogenates were centrifuged in a Sorvall RC-2B centrifuge at 10,000×g, 4° C., for 20 min. The supernatant was centrifuged in a Beckman Ultracentrifuge at 100,000×g, 4° C., for 1 h. The resulting cytosol fraction was used for determination of glutathione peroxidase activity and protein.
Glutathione peroxidase activity was determined spectrophotometrically according to a modification of the enzyme-coupled assay procedure of Paglia and Valentine. The reaction mixture consisted of 50 mM potassium phosphate buffer (pH 7.0), 1 mM EDTA, 0.2 mM NADPH, 1 enzyme unit/ml oxidized glutathione-reductase, 1 mM glutathione, and 1.5 mM cumene hydroperoxide in a total volume of 1 ml. The cytosol was added to the above mixture and allowed to incubate 5 min. at room temperature. Total glutathione peroxide was measured with cumene hydroperoxide as a substrate. Selenium-dependent glutathione peroxide was measured with tert-butyl hydroperoxide. The reaction was started with the addition of substrate solution. Absorbance was measured at 340 nm, and activity was measured from the slope of the lines as mol NADPH oxidized/min/mg protein. Blank reactions without cytosol were run simultaneously. Protein concentration in the cytosol fraction was measured by the method of Lowry et al. with bovine serum albumin as standard.
as §5

[7] = system: non-selenium-dependent glutathione peroxidase; assay: Non-selenium-dependent glutathione peroxidase activity in tissues of rats fed the diets; type: in vivo, male F344 rats; details: among the dietary groups
Procedure: as §3
Biochemical Determination. For the determination of tissue and blood plasma glutathione peroxidase activity, 6 vehicle-treated animals from each dietary group, while the animals were on experimental and control diets, were used. Before sacrificing the animals, blood was obtained under ether anesthesia by cardiac puncture with a syringe. They were then decapitated,and liver, kidneys, small intestine, and colon were rapidly removed. The liver was perfused with ice-cold normal saline. […]
Glutathione peroxidase activity was determined spectrophotometrically according to a modification of the enzyme-coupled assay procedure of Paglia and Valentine. […] Total glutathione peroxide was measured with cumene hydroperoxide as a substrate. Selenium-dependent glutathione peroxide was measured with tert-butyl hydroperoxide. […] Absorbance was measured at 340 nm, and activity was measured from the slope of the lines as mol NADPH oxidized/min/mg protein. […] Protein concentration in the cytosol fraction was measured by the method of Lowry et al. with bovine serum albumin as standard.

[8] = General toxicity observation in rats fed the diets; type: in vivo, male F344 rats; details: 25 ppm in diet
Description: as §1, §2, §3

[9] = system: carcinogenesis induced by chemicals; details: experimental animals; cited from earlier work
[10] = cited from earlier work
[11] = 25 ppm in diet 2 wk before to 1 wk after AOM
[12] = 25 ppm in diet, 27 (BSC) or 26 (BTC) animals/group
[13] = 25 ppm in diet 5 wk, Mean ± SE (n = 6)

N#CSCc1ccccc1 [BTC, benzylthiocyanate, reference compound]
Body weights of animals fed experimental vs control diets ([1]; AOM or vehicle treated, in words): comparable | Body wt, Initial (Wk 0) ([1]; AOM treated): 40 ± 3 g | Body wt, wk 4 ([1]; AOM treated): 180 ± 10 g | Body wt, wk 8 ([1]; AOM treated): 281 ± 18 g | Body wt, wk 16 ([1]; AOM treated): 356 ± 21 g | Body wt, wk 22 ([1]; AOM treated): 394 ± 22 g | Body wt, wk 30 ([1]; AOM treated): 432 ± 24 g | Body wt, wk 37 (at termination) ([1]; AOM treated): 459 ± 19 g | Body wt, Initial (Wk 0) ([1]; Vehicle treated): 40 ± 3 g | Body wt, wk 4 ([1]; Vehicle treated): 182 ± 10 g | Body wt, wk 8 ([1]; Vehicle treated): 286 ± 18 g | Body wt, wk 16 ([1]; Vehicle treated): 362 ± 21 g | Body wt, wk 22 ([1]; Vehicle treated): 406 ± 22 g | Body wt, wk 30 ([1]; Vehicle treated): 449 ± 24 g | Body wt, wk 37 (at termination) ([1]; Vehicle treated): 470 ± 24 g | Colon tumor incidence, Adenocarcinoma [2, 11]: 31 % of animals with tumors | Colon tumor incidence, Adenoma [2, 11]: 62 % of animals with tumors | Colon tumor incidence, Total (adenomas plus adenocarcinomas) [2, 11]: 69 % of animals with tumors | Number of animals with colon tumors, Adenocarcinoma [2, 12]: 8 number of animals | Number of animals with colon tumors, Adenoma [2, 12]: 16 number of animals | Number of animals with colon tumors, Total [2, 12]: 18 number of animals | Colon tumor multiplicity, Adenocarcinoma ([2]; 25 ppm in diet, Mean ± SD): 0.35 ± 0.4 no. of tumors/animals | Colon tumor multiplicity, Adenoma ([2]; 25 ppm in diet, Mean ± SD): 1.27 ± 1.3 no. of tumors/animals | Colon tumor multiplicity, Total ([2]; 25 ppm in diet, Mean ± SD): 1.62 ± 1.3 no. of tumors/animals | Number of tumors per group, colon Adenocarcinoma ([2]; 25 ppm in diet, in parentheses): 9 number of tumors per group | Incidence of total colon tumors (in words) ([2]; vs control diet): no differences in colon tumor incidences between the animals fed the control diet and BTC diet | Small intestinal tumor incidence, Adenocarcinoma [3, 11]: 38 % of animals with tumors | Small intestinal tumor incidence, Adenoma [3, 11]: 12 % of animals with tumors | Small intestinal tumor incidence, Total [3, 11]: 38 % of animals with tumors | Number of animals with small intestinal tumors, Adenocarcinoma [3, 12]: 10 number of animals | Number of animals with small intestinal tumors, Adenoma [3, 12]: 3 number of animals | Number of animals with small intestinal tumors, Total [3, 12]: 10 number of animals | Small intestinal tumor multiplicity, Adenocarcinoma ([3]; 25 ppm in diet, Mean ± SD): 0.34 0.6 no. of tumors/animal | Small intestinal tumor multiplicity, Adenoma ([3]; 25 ppm in diet, Mean ± SD): 0.12 0.3 no. of tumors/animal | Small intestinal tumor multiplicity, Total ([3]; 25 ppm in diet, Mean ± SD): 0.46 0.6 no. of tumors/animal | Number of animals with ear duct tumors ([4]; 27 (BSC) or 26 (BTC) animals/group): 5 animals | % of animals with ear duct tumors ([4]; AOM treated): 19 % of animals | No. of animals with metastasis ([5]; 25 ppm in diet, AOM treated): 0 No. of animals | AOM-induced metastasis (in words) ([5]; several organs): none of the animals in BSC and BTC diet groups developed metastasis | Selenium-dependent glutathione peroxidase activity, Kidney [6, 13]: 0.64 0.30 μmol NADPH oxidized/min/mg protein | Selenium-dependent glutathione peroxidase activity, Liver [6, 13]: 1.90 0.66 μmol NADPH oxidized/min/mg protein | Selenium-dependent glutathione peroxidase activity, Plasma [6, 13]: 0.69 0.16 μmol NADPH oxidized/min/mg protein | Selenium-dependent glutathione peroxidase activity, Colon ([6]; 25 ppm in diet 5 wk, colonic mucosa, Mean ± SE (n = 6)): 0.23 0.06 μmol NADPH oxidized/min/mg protein | Selenium-dependent glutathione peroxidase activity, Small intestine ([6]; 25 ppm in diet 5 wk, small intestinal mucosa, Mean ± SE (n = 6)): 0.20 0.10 μmol NADPH oxidized/min/mg protein | Selenium-dependent glutathione peroxidase activity (in words) ([6]; liver and plasma): not affected | Non-selenium-dependent glutathione peroxidase activity (in words) [7]: no differences in the activity of non-selenium-dependent glutathione peroxidase activity among the dietary groups | Death after AOM treatment ([8]; 2 wk after AOM treatment): One | Evidence of toxicity in animals fed the diet [8]: no evidence of toxicity | Inhibition of chemically induced carcinogenesis [9]: inhibitor of carcinogenesis induced by chemicals in experimental animals

[Se] [selenium]
Reproductive and teratogenic effects ([10]; animals and humans): Toxic reproductive and teratogenic effects | Toxic chronic feeding level ([10]; chronic feeding, animals): 5 to 10 ppm
